Structures are written as SMILES.

A short description of this experiment: Inhibition of HMG-coA reductase in CD rat liver microsomal-cytosol fraction assessed as inhibition of fatty acid synthesis using [2-14C]acetate as substrate after 90 mins by scintillation counting analysis. Background: Liver microsomes are a subcellular fraction often used to study metabolism.
By IC50 is commonly meant the midpoint of a concentration-inhibition curve. Turning to `CC(CCc1ccc(Oc2ccccc2)cc1)CC(=O)O` (configuration not stated), the half-inhibitory concentration (IC50) came out at 80 µM.

Take `CC(CC(=O)O)CC(=O)c1ccc(Sc2ccccc2)cc1` (configuration not stated): the half-maximal inhibitory concentration (IC50) came out at 780 µM.

`CC(CCc1ccc(-c2ccccc2)cc1)CC(=O)O` (configuration not stated): the IC50 amounted to 80 µM.

Turning to `CC(CCc1ccc2sc3ccccc3c2c1)CC(=O)O` (configuration not stated), the IC50 came to 860 µM.

Regarding `CC(CC(=O)O)CC(=O)c1ccc(-c2ccccc2)cc1` (configuration not stated), the 50% inhibitory concentration (IC50) came to 1200 µM.

With `CC(CC(=O)O)CC(=O)c1ccc2sc3ccccc3c2c1` (configuration not stated), the half-maximal inhibitory concentration (IC50) was 930 µM.

Take `CC(CCc1ccc(S(=O)(=O)c2ccccc2)cc1)CC(=O)O` (configuration not stated): the half-inhibitory concentration (IC50) stood at 80 µM.

Consider `CC(CCc1ccc2oc3ccccc3c2c1)CC(=O)O` (configuration not stated), for which the IC50 stood at 1600 µM.

On to `CC(CCc1ccc(Sc2ccccc2)cc1)CC(=O)O` (configuration not stated), for which the IC50 was found to be 100 µM.

On to `CC(CC(=O)O)CC(=O)c1ccc(Oc2ccccc2)cc1` (configuration not stated), for which the IC50 was 2100 µM.

As for `CC(CC(=O)O)CC(=O)c1ccc2oc3ccccc3c2c1` (configuration not stated), the IC50 was found to be 430 µM.

With `CC(CCc1ccc2c(c1)-c1ccccc1S2(=O)=O)CC(=O)O` (configuration not stated), the IC50 came to 30 µM.
